Reference: patent US10870858B2 (priority 2014, dated 2020)

Test system: stably-integrated TK strains
Experiment: FUdR counterselection of TK versus tk cells on SC media
Format: cell-based, Saccharomyces
Details: 50 μg/mL FUdR in synthetic complete (SC) media
Description: With a stably integrated copy of HSV-TK in each of several genomes, we were able to evaluate counterselection media conditions. […] As an initial test of our ability to recover newly generated tk wild-type cells, we transformed a strain of S. kudriavzevii that had regions of identical sequence on either side of its hoΔ::NatMX locus with TkMX PCR product and selected for cells resistant to the antifolate drugs (FIG. 4A). When counterselection with SC+FUdR media was conducted, only cells that had deleted the TkMX marker by homologous recombination survived and yielded colonies resistant to FUdR (FIG. 4B).

SMILES: O=c1[nH]c(=O)n([C@H]2C[C@H](O)[C@@H](CO)O2)cc1F [FUdR, 5-fluorodeoxyuridine]
- growth of stably-integrated TK strains: sufficient to inhibit growth
- growth of tk wild-type cells: allow growth
